From ChEMBL document CHEMBL5233235, “Chalcone hybrids as privileged scaffolds in antimalarial drug discovery: A key review” (Eur J Med Chem, 2020)
In brackets after ≈: the same amount, converted by molar mass. Values belong to the compound of their own block, whether it stands above or below them.

How the values were obtained:
Plasmodium falciparum [1] = assay: Antimalarial activity against chloroquine-sensitive Plasmodium falciparum 3D7; format: functional, organism-based
Plasmodium falciparum [2] = assay: Antiplasmodial activity against Plasmodium falciparum 3D7 incubated for 30 hrs followed by addition of [3H]-hypoxanthine and measured after 18 hrs by liquid scintillation counting method; format: functional, organism-based
[3] = Cytotoxicity against human HepG2 cells; format: toxicity, cell-based
Plasmodium falciparum [4] = assay: Antiparasitic activity against Plasmodium falciparum W2 incubated for 48 hrs by flow cytometry based analysis; format: functional, organism-based; settings: W2, 48 h
Plasmodium = assay: Antimalarial activity against Plasmodium falciparum K1 by [3H]-hypoxanthine uptake assay; format: functional, organism-based
Plasmodium falciparum [5] = assay: Antimalarial activity against Plasmodium falciparum; format: functional, organism-based
Plasmodium falciparum [6] = assay: Antimalarial activity against chloroquine-resistant Plasmodium falciparum W2 incubated for 48 hrs by microscopic analysis; format: functional, organism-based; settings: W2, 48 h
[7] = Cytotoxicity against mouse FM3A cells incubated for 48 hrs; format: toxicity, cell-based
[8] = Selectivity index, ratio of EC50 for cytotoxicity against mouse FM3A cells to EC50 for antimalarial activity against Plasmodium falciparum ATCC 30932; format: toxicity, cell-based; settings: read-out: Ratio EC50
Plasmodium falciparum [9] = assay: Antimalarial activity against Plasmodium falciparum ATCC 30932 incubated for […]; format: functional, organism-based
Plasmodium falciparum [10] = assay: Antimalarial activity against Plasmodium falciparum 3D7; format: functional, organism-based
Plasmodium falciparum [11] = assay: Antimalarial activity against chloroquine-sensitive Plasmodium falciparum 3D7 by candle jar method; format: functional, organism-based
[12] = Plasmodium falciparum, 3D7, read-out: IC50

IC50 (Plasmodium falciparum [1]): < 5 µg/mL
Structure (SMILES): O=C(/C=C/c1ccc([N+](=O)[O-])cc1)c1c(O)c2ccccc2oc1=O

IC50 (Plasmodium falciparum [2]; [12]): 12 µg/mL (≈ 33.4 µM)
Structure (SMILES): CCO/C(C)=N/Oc1ccc(/C=C/C(=O)c2ccc3ccccc3c2)cc1
IC50 [3]: 54 µg/mL (≈ 150 µM)

IC50 (Plasmodium falciparum [4]): 0.67 µM
Structure (SMILES): O=C(/C=C/c1ccc(F)cc1F)c1ccc(NS(=O)(=O)c2cc(Cl)ccc2Cl)cc1

IC50 (Plasmodium): < 5 µM
Structure (SMILES): CCc1ccc(/C=C/C(=O)c2ccc(OC)cc2OC)cc1

IC50 (Plasmodium falciparum [5]): 2.1 µM
Structure (SMILES): O=C(/C=C/c1c[nH]c2ccccc12)c1ccccc1O

MIC (Plasmodium falciparum [5]): 10 µg/mL (≈ 23.6 µM)
Structure (SMILES): O=C(/C=C/c1cc2ccccc2nc1Cl)c1cc(Br)cc(Cl)c1O

IC50 (Plasmodium falciparum [2]; [12]): 12 µg/mL (≈ 30 µM)
Structure (SMILES): CCO/C(C)=N/Oc1ccc(C(=O)/C=C/c2cc(OC)c(OC)c(OC)c2)cc1
IC50 [3]: 20 µg/mL (≈ 50.1 µM)

IC50 (Plasmodium falciparum [2]; [12]): 6 µg/mL (≈ 16.2 µM)
Structure (SMILES): CCO/C(C)=N/Oc1ccc(C(=O)/C=C/c2cc(OC)ccc2OC)cc1

IC50 (Plasmodium falciparum [2]; [12]): 12 µg/mL (≈ 28.9 µM)
Structure (SMILES): CCO/C(C)=N/Oc1ccc(C(=O)/C=C/c2ccc(OCc3ccccc3)cc2)cc1

IC50 (Plasmodium): < 5 µM
Structure (SMILES): COc1ccc(/C=C/C(=O)c2ccc(OC)cc2OC)c(OC)c1

IC50 (Plasmodium falciparum [4]): 0.48 µM
Structure (SMILES): COc1cc(/C=C/C(=O)c2ccc(NS(=O)(=O)c3cc(Cl)ccc3Cl)cc2)cc(OC)c1OC

IC50 (Plasmodium falciparum [5]): 5.8 µM
Structure (SMILES): O=C(/C=C/c1ccc2ccccc2c1)c1c[n+]([O-])c2ccccc2[n+]1[O-]

Structure (SMILES): O=C(/C=C/c1cccc(S(=O)(=O)N2CCOCC2)c1)c1ccccc1
IC50 (Plasmodium falciparum [6]): 2.06 µM

Structure (SMILES): C[C@@H]1CC[C@H]2[C@@H](C)C(=O)O[C@@H]3O[C@@]4(C)CC[C@@H]1[C@]32OO4 [ARTEMISININ]
IC50 (Plasmodium falciparum [2]): 0.021 uM/ml

MIC (Plasmodium falciparum [5]): 50 µg/mL (≈ 111 µM)
Structure (SMILES): Cc1cccc(C(=O)/C=C(\I)c2cc3ccccc3nc2Cl)c1O

IC50 (Plasmodium falciparum [5]): 6.2 µM
Structure (SMILES): COc1cc(/C=C/C(=O)c2c[n+]([O-])c3ccccc3[n+]2[O-])cc(OC)c1OC

EC50 (Plasmodium falciparum [9]): 1 µg/mL (≈ 3.18 µM)
Structure (SMILES): COc1ccc(C(=O)/C=C/c2ccc(OC)c(OC)c2)c(O)c1
EC50 at 48 h [7]: > 3.3 µg/mL
selectivity ratio [8]: > 3.3

MIC (Plasmodium falciparum [5]): 10 µg/mL (≈ 22.1 µM)
Structure (SMILES): COc1ccc2nc(Cl)c(/C=C/C(=O)c3cc(Br)cc(Cl)c3O)cc2c1

IC50 (Plasmodium falciparum [10]): 0.59 µM
Structure (SMILES): COc1ccc(C(=O)/C=C/c2ccc(O)c(O)c2)c(O)c1 [CALYTHROPSIN]

IC50 (Plasmodium falciparum [11]): 1.1 µg/mL (≈ 2.86 µM)
Structure (SMILES): COc1ccc(/C=C/C(=O)c2ccc(-n3ncc4ccccc43)cc2)c(OC)c1

IC50 (Plasmodium): < 5 µM
Structure (SMILES): COc1ccc(C(=O)/C=C/c2cnc3ccccc3c2)c(OC)c1
